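Cells were grown in 96-well plates and exposed to each compound for 48 hours at five concentrations; endpoints were interpolated linearly between bracketing concentrations, or set to the highest concentration if not reached. GI50 marks 50% less growth.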 Calls of active or inactive are those of the source. No stated cut-off is given here; in the data, active = GI50 up to about 1.1 µM and inactive = higher.
Tests used:
Assay in all cases: growth of human tumour cells (NCI), 48 h
786-0 = test system: 786-0
A498 = test system: A498
A549 = test system: A549
ACHN = test system: ACHN
CAKI-1 = test system: CAKI-1
CCRF-CEM = test system: CCRF-CEM
COLO 205 = test system: COLO 205
DLD-1 = test system: DLD-1
DMS-114 = test system: DMS-114
DMS-273 = test system: DMS-273
EKVX = test system: EKVX
HCC 2998 = test system: HCC 2998
HCT-116 = test system: HCT-116
HCT-15 = test system: HCT-15
HL-60 = test system: HL-60
HOP-18 = test system: HOP-18
HOP-62 = test system: HOP-62
HOP-92 = test system: HOP-92
HT-29 = test system: HT-29
IGROV-1 = test system: IGROV-1
K562 = test system: K562
KM-20L2 = test system: KM-20L2
KM12 = test system: KM12
LOX IMVI = test system: LOX IMVI
LXFL 529 = test system: LXFL 529
M14 = test system: M14
Malme-3M = test system: Malme-3M
NCI-H226 = test system: NCI-H226
NCI-H23 = test system: NCI-H23
NCI-H460 = test system: NCI-H460
NCI-H522 = test system: NCI-H522
OVCAR-3 = test system: OVCAR-3
OVCAR-4 = test system: OVCAR-4
OVCAR-5 = test system: OVCAR-5
OVCAR-8 = test system: OVCAR-8
RPMI-8226 = test system: RPMI-8226
RXF 393 = test system: RXF 393
RXF 631 = test system: RXF 631
SF-268 = test system: SF-268
SF-295 = test system: SF-295
SF-539 = test system: SF-539
SK-MEL-28 = test system: SK-MEL-28
SK-MEL-2 = test system: SK-MEL-2
SK-MEL-5 = test system: SK-MEL-5
SK-OV-3 = test system: SK-OV-3
SN12C = test system: SN12C
SNB-19 = test system: SNB-19
SNB-75 = test system: SNB-75
SNB-78 = test system: SNB-78
SW-620 = test system: SW-620
TK-10 = test system: TK-10
U-251 = test system: U-251
UACC-257 = test system: UACC-257
UACC-62 = test system: UACC-62
UO-31 = test system: UO-31
XF498 = test system: XF498
M19-MEL = test system: M19-MEL
MOLT-4 = test system: MOLT-4
SR = test system: SR

Measured: GI50

CSc1nc2c(c(O)c(C)c(=O)n2C2OC(COC(C)=O)C(OC(C)=O)C(OC(C)=O)C2OC(C)=O)c(=O)n1C (configuration not stated)
> 100 µM: HCT-15
active: RPMI-8226 < 0.01 µM
inactive: 786-0 > 100 µM | A498 > 100 µM | A549 > 100 µM | ACHN > 100 µM | CAKI-1 > 100 µM | CCRF-CEM > 100 µM | COLO 205 > 100 µM | DLD-1 > 100 µM | DMS-114 > 100 µM | DMS-273 > 100 µM | EKVX > 100 µM | HCC 2998 > 100 µM | HCT-116 > 100 µM | HL-60 > 100 µM | HOP-18 > 100 µM | HOP-62 > 100 µM | HOP-92 > 100 µM | HT-29 > 100 µM | IGROV-1 > 100 µM | K562 > 100 µM | KM-20L2 > 100 µM | KM12 > 100 µM | LOX IMVI > 100 µM | LXFL 529 > 100 µM | M14 > 100 µM | Malme-3M > 100 µM | NCI-H226 > 100 µM | NCI-H23 > 100 µM | NCI-H460 > 100 µM | NCI-H522 > 100 µM | OVCAR-3 > 100 µM | OVCAR-4 > 100 µM | OVCAR-5 > 100 µM | OVCAR-8 > 100 µM | RXF 393 > 100 µM | RXF 631 > 100 µM | SF-268 > 100 µM | SF-295 > 100 µM | SF-539 > 100 µM | SK-MEL-28 > 100 µM | SK-MEL-2 > 100 µM | SK-MEL-5 > 100 µM | SK-OV-3 > 100 µM | SN12C > 100 µM | SNB-19 > 100 µM | SNB-75 > 100 µM | SNB-78 > 100 µM | SW-620 > 100 µM | TK-10 > 100 µM | U-251 > 100 µM | UACC-257 > 100 µM | UACC-62 > 100 µM | UO-31 > 77.4 µM | XF498 > 100 µM

NCCOc1ccc(/C(=C(/Cl)c2ccccc2)c2ccccc2)cc1
inactive: 786-0 7.94 µM | A498 19.1 µM | A549 16 µM | ACHN 14 µM | CAKI-1 8.34 µM | CCRF-CEM 7.11 µM | COLO 205 1.89 µM | DLD-1 15.6 µM | DMS-114 12.9 µM | DMS-273 10.6 µM | EKVX 15.1 µM | HCC 2998 4.34 µM | HCT-116 7.19 µM | HL-60 3.74 µM | HOP-62 17.9 µM | HOP-92 5.18 µM | HT-29 3.14 µM | IGROV-1 14.4 µM | K562 3.32 µM | KM-20L2 6.62 µM | KM12 5.18 µM | LOX IMVI 4.05 µM | LXFL 529 7.1 µM | M14 2.26 µM | M19-MEL 10.7 µM | MOLT-4 3.14 µM | Malme-3M 9.27 µM | NCI-H226 18.7 µM | NCI-H23 16 µM | NCI-H460 7.14 µM | NCI-H522 12.4 µM | OVCAR-3 12.4 µM | OVCAR-4 13 µM | OVCAR-5 16.7 µM | OVCAR-8 14 µM | RPMI-8226 3.17 µM | RXF 393 4.03 µM | RXF 631 11.4 µM | SF-268 13.2 µM | SF-295 14.4 µM | SF-539 15.3 µM | SK-MEL-28 5.66 µM | SK-MEL-2 14.4 µM | SK-MEL-5 9.1 µM | SK-OV-3 16.9 µM | SN12C 9.66 µM | SNB-19 14.4 µM | SNB-75 11.4 µM | SNB-78 10 µM | SR 3.21 µM | SW-620 4.19 µM | TK-10 12.9 µM | U-251 10.9 µM | UACC-257 10.8 µM | UACC-62 11 µM | UO-31 9.16 µM | XF498 5.6 µM
6.55 µM: HCT-15

COc1ccc2cc1Oc1ccc(cc1)CC1c3cc(c(OC)cc3CCN1C)Oc1c3c(cc4c1C(C2)N(C)CC4)OCO3 (configuration not stated)
4.42 µM: HCT-15
inactive: 786-0 11.5 µM | A549 16 µM | ACHN 4.58 µM | CCRF-CEM 13.2 µM | COLO 205 3.89 µM | DLD-1 17 µM | DMS-114 5.74 µM | DMS-273 3.44 µM | EKVX 14.9 µM | HCC 2998 11.5 µM | HCT-116 12.8 µM | HL-60 1.92 µM | HOP-62 15.5 µM | HT-29 2.46 µM | IGROV-1 15.1 µM | K562 1.85 µM | KM-20L2 2.08 µM | KM12 12.9 µM | LOX IMVI 1.85 µM | LXFL 529 13 µM | M14 1.87 µM | M19-MEL 3.85 µM | MOLT-4 5.52 µM | NCI-H226 2.35 µM | NCI-H23 17 µM | NCI-H460 14.2 µM | NCI-H522 7.16 µM | OVCAR-3 15.7 µM | OVCAR-4 4.58 µM | OVCAR-5 18.2 µM | OVCAR-8 8.36 µM | RXF 393 1.83 µM | RXF 631 13.7 µM | SF-268 8.36 µM | SF-295 10.3 µM | SF-539 2.34 µM | SK-MEL-28 3.29 µM | SK-MEL-2 5.2 µM | SK-MEL-5 12.3 µM | SN12C 11.4 µM | SNB-19 17.6 µM | SNB-75 3.74 µM | SNB-78 13.9 µM | SR 7.85 µM | SW-620 13.1 µM | TK-10 2.19 µM | U-251 5.14 µM | UACC-62 16.2 µM | XF498 9.55 µM

Cc1cc(C(=C2C=CC(=[N+](C)C)C=C2)c2ccc([N+](C)(C)C)cc2)ccc1N(C)C
inactive: 786-0 21.6 µM | A498 18.5 µM | A549 4.33 µM | ACHN 10.7 µM | CAKI-1 18.2 µM | CCRF-CEM 2.48 µM | COLO 205 10.1 µM | DLD-1 6.65 µM | DMS-114 4.67 µM | DMS-273 5.01 µM | EKVX 4.32 µM | HCC 2998 13.8 µM | HCT-116 3.23 µM | HL-60 2.3 µM | HOP-62 25.2 µM | HOP-92 10.9 µM | HT-29 5.08 µM | IGROV-1 12.3 µM | K562 2.07 µM | KM-20L2 5.48 µM | KM12 4.66 µM | LOX IMVI 4.79 µM | LXFL 529 6.98 µM | M14 10.4 µM | M19-MEL 5.52 µM | MOLT-4 4.28 µM | Malme-3M 15.8 µM | NCI-H226 16 µM | NCI-H23 10.1 µM | NCI-H460 3.98 µM | NCI-H522 15.9 µM | OVCAR-3 12 µM | OVCAR-4 15.8 µM | OVCAR-5 21.9 µM | OVCAR-8 5.08 µM | RPMI-8226 2.04 µM | RXF 393 5.65 µM | RXF 631 7.91 µM | SF-268 11.6 µM | SF-295 5.2 µM | SF-539 10.8 µM | SK-MEL-28 11.3 µM | SK-MEL-2 15.2 µM | SK-MEL-5 11.8 µM | SK-OV-3 15.8 µM | SN12C 5.07 µM | SNB-19 24 µM | SNB-75 2.65 µM | SNB-78 10.7 µM | SR 1.62 µM | SW-620 5.31 µM | TK-10 1.57 µM | U-251 5.53 µM | UACC-257 12.1 µM | UACC-62 5.55 µM | UO-31 26.3 µM | XF498 1.36 µM
33 µM: HCT-15

Reference: ChEMBL document CHEMBL1201862, “PubChem BioAssay data set” (2004)
